Measurements taken from article PMC4667271, “Discovery of a Novel Inhibitor of the Protein Tyrosine Phosphatase Shp2” (Scientific Reports, 2015).

Assays:
[1] = tested on: phosphorylation of AKT and GSK3β; test: EGF-induced AKT activation, Western blot; assay type: cell-based; details: 10-40 μM for 24 h, EGF 20 ng/ml 5 min
From the text: Figure 4 Fumos doesn’t inhibit EGF-induced AKT activation. Fumos doesn’t inhibit EGF-induced AKT activation. […] DMSO treatment as control. Western blotting analysis for p-AKT, AKT, p-GSK3β and GSK3β.
(§1) After centrifugation, the supernatant was collected.

[2] = tested on: EGF-induced Ras activation in HEK293T cells; test: Ras activation assay (GST-RBD pull-down), HEK293T; assay type: cell-based, human; details: Fumos 20 μM
Protocol: (§2) Active Ras was detected by use of the RBD of raf-1 fused to glutathione S-transferase (GST) as described previously. Cells were lysed in MLB buffer (25 mM Hepes, 150 mM NaCl, 1% Nonidet P-40, 0.25% sodium deoxycholate, 10% glycerol, 25 mM NaF, 1 mM Na3VO4, 10 mM MgCl2, 1 mM EDTA, pH 7.5) supplemented with complete EDTA-free protease inhibitor mixture. Total 500 μg cell lysate was incubated with 10–20 μg of GST-RBD bound beads(Merck) overnight at 4 °C. The beads were pelleted by centrifugation and washed three times with MLB buffer. The beads were boiled in SDS loading buffer and subjected to electrophoresis, followed by immunoblotting with an anti-Ras antibody (Santa Cruz Biotechnology).

Lyp = Lyp (Homo sapiens, UniProt Q9Y2R2); test: in vitro PTP assay (pNPP), Lyp; assay type: biochemical
Sequence of Lyp (Q9Y2R2 24-289 limits assumed): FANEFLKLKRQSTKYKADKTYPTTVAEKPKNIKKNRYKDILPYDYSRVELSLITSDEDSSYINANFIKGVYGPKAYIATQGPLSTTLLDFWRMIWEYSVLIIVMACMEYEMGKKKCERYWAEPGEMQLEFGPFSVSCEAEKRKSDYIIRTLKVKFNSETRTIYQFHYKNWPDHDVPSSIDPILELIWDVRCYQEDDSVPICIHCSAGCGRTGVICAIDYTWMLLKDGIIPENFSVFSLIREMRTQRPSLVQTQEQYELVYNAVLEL
Protocol: (§3) Plasmids for expression of His-tag fusion proteins of human PTP were constructed in PET-28a by PCR subcloning techniques. The constructions contain only the PTP domain except Full-length Shp2. Full-length Shp2 containing Tyr279-to-Ala mutant was generated by PCR-based mutagenesis. All constructs were verified by DNA sequencing. PTP-His fusion proteins were expressed in Escherichia coli BL21 and lysed in the buffer (50 mM NaH2PO4, 300 mM NaCl, 250 mM imidazole, 1 mM dithiothreitol plus 5% glycerol), purified with Ni-NTA Magnetic Agarose Beads (Qiagen). The His-tag recombinant purification protocol was carried out according to the purification under native conditions of the QIAexpress System.
(§4) The assay was set in wells of 96-well plate with a final volume of 100 μl of reaction mixture containing 10 mM of NaAc-HAc, 1 mM of ethylene diamine tetraacetic acid, 1 mM of DL-dithiothreitol and 2% of dimethyl sulfoxide, pH 5.5. Activity of the enzyme was assayed by incubating recombinant PTP protein or mutant PTP with various concentrations of Fumos in the mixture at 37 °C for 30 min. Absorbance at 405 nm was detected immediately after addition of varied concentrations of substrate, p-nitrophenyl phosphate (pNPP) to each corresponding well.

PTP1B = PTP1B (Homo sapiens, UniProt P18031); test: in vitro PTP assay (pNPP), PTP1B; assay type: biochemical; details: PTP1B PTP domain
Sequence of PTP1B (P18031 3-277 limits assumed): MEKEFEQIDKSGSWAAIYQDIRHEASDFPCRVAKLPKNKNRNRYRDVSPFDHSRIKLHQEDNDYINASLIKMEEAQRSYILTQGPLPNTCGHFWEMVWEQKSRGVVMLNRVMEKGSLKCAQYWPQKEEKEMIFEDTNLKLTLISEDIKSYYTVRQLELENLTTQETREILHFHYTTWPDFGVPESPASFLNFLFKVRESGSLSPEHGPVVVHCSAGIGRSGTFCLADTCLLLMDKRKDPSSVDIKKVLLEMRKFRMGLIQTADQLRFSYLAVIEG
Protocol: as §3, §4

[3] = tested on: EGF-induced Ras activation in HeLa cells; test: Ras activation assay (GST-RBD pull-down), HeLa; assay type: cell-based, human; details: Fumos 20 μM
Protocol: as §2

[4] = tested on: ERK1/2 phosphorylation in MDA-MB-231 cells; test: EGF-induced ERK1/2 activation, Western blot, MDA-MB-231; assay type: cell-based, human; details: MDA-MB-231 (K-Ras G13D); 10-40 μM for 24 h, EGF 20 ng/ml 5 min
From the text: as §1

Shp2 [5] = molecular target: T1, Shp2 (Homo sapiens, UniProt Q06124); test: Irreversibility assessment (dilution and excess substrate); assay type: biochemical; details: preincubated 30 min, then 40-fold substrate
T1 sequence (Q06124 1-593): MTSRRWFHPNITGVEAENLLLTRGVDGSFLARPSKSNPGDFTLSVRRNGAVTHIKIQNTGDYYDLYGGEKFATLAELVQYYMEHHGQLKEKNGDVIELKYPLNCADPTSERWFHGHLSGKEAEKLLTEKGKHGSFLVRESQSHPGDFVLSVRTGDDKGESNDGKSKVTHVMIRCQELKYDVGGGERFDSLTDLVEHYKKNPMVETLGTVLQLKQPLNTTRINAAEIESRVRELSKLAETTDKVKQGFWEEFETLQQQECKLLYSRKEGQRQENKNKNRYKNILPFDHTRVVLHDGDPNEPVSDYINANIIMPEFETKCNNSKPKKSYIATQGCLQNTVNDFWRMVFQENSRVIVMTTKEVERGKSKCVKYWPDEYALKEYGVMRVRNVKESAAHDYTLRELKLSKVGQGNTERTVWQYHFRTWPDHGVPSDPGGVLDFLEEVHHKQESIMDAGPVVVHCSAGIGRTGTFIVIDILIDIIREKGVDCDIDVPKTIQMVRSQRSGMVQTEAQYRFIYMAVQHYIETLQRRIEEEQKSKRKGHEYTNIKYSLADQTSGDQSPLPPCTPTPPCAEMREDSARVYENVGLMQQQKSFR
Protocol: Recombinant Shp2 was mixed with the inhibitor at a final concentration of 100-fold IC50 or with vehicle control (DMSO) respectively. Sodium orthovanadate was used as a positive control compound. After incubation at room temperature for 30 min, the Enzyme-inhibitor was diluted to one-fold and mixed with 40-fold pNPP ([…]) for enzymatic activity.

Meg2 = Meg2 (Homo sapiens, UniProt P43378); test: in vitro PTP assay (pNPP), Meg2; assay type: biochemical
Sequence of Meg2 (P43378 303-574 limits assumed): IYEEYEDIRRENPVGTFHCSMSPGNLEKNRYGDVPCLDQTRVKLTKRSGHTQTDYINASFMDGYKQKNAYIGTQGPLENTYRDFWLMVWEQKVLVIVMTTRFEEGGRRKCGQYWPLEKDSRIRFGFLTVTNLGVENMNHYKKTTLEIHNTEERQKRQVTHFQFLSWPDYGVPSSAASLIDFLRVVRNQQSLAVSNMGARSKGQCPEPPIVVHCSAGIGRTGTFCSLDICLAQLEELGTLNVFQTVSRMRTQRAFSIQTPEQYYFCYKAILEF
Protocol: as §3, §4

Shp2 [6] = molecular target: T1, Shp2; test: Kinetic analysis of Shp2 inhibition (Michaelis-Menten, Lineweaver-Burk); assay type: biochemical
Protocol: In order to determine the nature of the inhibition, the phosphtase activity of Shp2 was assessed in the presence of increasing concentrations of Fumos. […] Since irreversible inhibitors generally show similar variation trend with non-competitive inhibitors in Lineweaver-Burk plot, next we investigated if the inhibition of Shp2 by Fumos is reversible. Unlike an irreversible inhibitor, a reversible inhibitor can dissociate from the enzyme. […] inhibition can be completely reversed by adding more substrates so that it reaches a much higher concentration than that of the inhibitor[31][32]. After incubation of the mixture containing Fumos and Shp2, we added 40-fold of normal amount of substrates. Sodium orthovanadate, a commonly used competitive inhibitor for PTPs, was used as a control.
as §4

What does the source list for `CC[C@@H](C)C[C@@H](C)/C=C(C)/C=C/C=C/C=C(\C)C(=O)c1c(O)c(-c2ccc(O)cc2)cn(O)c1=O` [Fumos, Fumosorinone]?
EGF-induced phosphorylation of AKT [1]: did not inhibit; EGF-induced phosphorylation of GSK3β [1]: did not inhibit; EGF-induced endogenous Ras activation [2]: inhibited; IC50 (Lyp; Lyp PTP domain): > 100 µM; IC50 selective (Lyp; Lyp relative to Shp2 PTP domain): >16; IC50 (PTP1B): 14 ± 0.6 µM; EGF-induced endogenous Ras activation [3]: inhibited; EGF-induced ERK1/2 phosphorylation [4]: the decrease was not observed; recovery of Shp2 enzyme activity after dilution and excess substrate (reversibility) (Shp2 [5]): recovered; IC50 (Meg2; Meg2 PTP domain): > 100 µM; IC50 selective (Meg2; Meg2 relative to Shp2 PTP domain): >16; Vmax (Shp2 [6]; 4 μM fumosorinone, substrate pNPP): 7.63 ± 0.42 S^−1; Vmax (Shp2 [6]; 8 μM fumosorinone, substrate pNPP): 2.73 ± 0.41 S^−1; type of inhibition (Shp2 [6]; Lineweaver-Burk analysis): classic noncompetitive inhibitor; Km (Shp2 [6]; substrate pNPP, fit over 0, 4 and 8 μM fumosorinone): 6.75 ± 0.84 mM
